Laboratory results published in PMC3391414 (Journal of Agricultural and Food Chemistry, 2011).
Like-named read-outs stand apart in the source and are kept apart here. Blank lines part the entries; values can stand above or below the compound they belong to.

Legend:
UGT1A9 [1] = molecular target: T1, UGT1A9 (Homo sapiens, UniProt O60656); conditions: pH 7.4
T1 sequence (O60656 26-530): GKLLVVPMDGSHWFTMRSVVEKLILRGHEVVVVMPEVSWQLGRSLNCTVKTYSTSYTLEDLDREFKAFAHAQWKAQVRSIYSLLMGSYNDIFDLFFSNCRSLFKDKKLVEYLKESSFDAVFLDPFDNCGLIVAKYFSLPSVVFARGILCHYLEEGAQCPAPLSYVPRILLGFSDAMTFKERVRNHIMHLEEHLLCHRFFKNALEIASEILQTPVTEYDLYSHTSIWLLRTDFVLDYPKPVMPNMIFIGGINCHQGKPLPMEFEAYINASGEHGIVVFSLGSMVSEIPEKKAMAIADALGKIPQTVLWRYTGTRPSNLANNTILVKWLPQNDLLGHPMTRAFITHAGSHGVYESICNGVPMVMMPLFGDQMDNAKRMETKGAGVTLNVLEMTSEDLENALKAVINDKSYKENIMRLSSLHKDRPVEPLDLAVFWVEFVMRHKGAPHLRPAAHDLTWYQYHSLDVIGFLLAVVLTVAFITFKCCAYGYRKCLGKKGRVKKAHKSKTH

[2] = test system: UGT 1A1, 1A3, 1A6, 1A7, 1A8, 1A9, 1A10 and 2B7; conditions: human, 10 μM, pH 7.4
UGT1A1 [3] = molecular target: T2, UGT1A1 (Homo sapiens, UniProt P22309); conditions: pH 7.4
T2 sequence (P22309 26-533): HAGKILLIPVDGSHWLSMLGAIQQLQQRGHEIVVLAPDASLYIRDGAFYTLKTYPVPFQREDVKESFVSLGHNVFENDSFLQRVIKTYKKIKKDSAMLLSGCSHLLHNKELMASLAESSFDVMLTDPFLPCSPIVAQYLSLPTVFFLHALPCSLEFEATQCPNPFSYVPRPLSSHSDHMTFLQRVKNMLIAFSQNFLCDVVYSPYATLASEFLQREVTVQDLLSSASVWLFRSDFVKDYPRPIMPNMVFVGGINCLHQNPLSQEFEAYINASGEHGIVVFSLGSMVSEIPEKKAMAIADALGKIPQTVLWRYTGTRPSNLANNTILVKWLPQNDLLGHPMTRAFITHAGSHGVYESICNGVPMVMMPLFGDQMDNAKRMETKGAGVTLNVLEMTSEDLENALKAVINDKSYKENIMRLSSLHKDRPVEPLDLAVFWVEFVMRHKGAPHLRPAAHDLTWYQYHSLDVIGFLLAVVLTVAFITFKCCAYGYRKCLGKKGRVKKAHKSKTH

UGT1A3 [4] = molecular target: T3, UGT1A3 (Homo sapiens, UniProt P35503); conditions: pH 7.4
T3 sequence (P35503 29-534): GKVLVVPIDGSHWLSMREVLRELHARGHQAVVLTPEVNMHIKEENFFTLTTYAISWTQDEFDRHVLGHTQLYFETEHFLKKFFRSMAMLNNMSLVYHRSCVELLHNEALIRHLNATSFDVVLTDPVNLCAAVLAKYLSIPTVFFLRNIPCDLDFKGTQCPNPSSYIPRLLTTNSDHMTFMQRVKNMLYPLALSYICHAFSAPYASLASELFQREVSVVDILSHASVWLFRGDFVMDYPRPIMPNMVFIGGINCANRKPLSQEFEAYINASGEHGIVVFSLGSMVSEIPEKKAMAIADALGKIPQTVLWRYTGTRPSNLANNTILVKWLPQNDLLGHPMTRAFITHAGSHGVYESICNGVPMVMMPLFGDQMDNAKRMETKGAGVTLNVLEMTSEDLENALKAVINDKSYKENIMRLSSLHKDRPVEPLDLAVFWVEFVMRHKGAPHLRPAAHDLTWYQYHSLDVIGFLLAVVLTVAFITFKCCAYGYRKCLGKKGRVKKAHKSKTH

UGT1A3 [5] = molecular target: T3, UGT1A3; experiment: Glucuronidation by recombinant human UGT1A3
UGT1A6 = molecular target: T4, UGT1A6 (Homo sapiens, UniProt P19224); experiment: Glucuronidation by recombinant human UGT1A6; conditions: UGT1A6, substrate 10 μM
T4 sequence (P19224 27-532): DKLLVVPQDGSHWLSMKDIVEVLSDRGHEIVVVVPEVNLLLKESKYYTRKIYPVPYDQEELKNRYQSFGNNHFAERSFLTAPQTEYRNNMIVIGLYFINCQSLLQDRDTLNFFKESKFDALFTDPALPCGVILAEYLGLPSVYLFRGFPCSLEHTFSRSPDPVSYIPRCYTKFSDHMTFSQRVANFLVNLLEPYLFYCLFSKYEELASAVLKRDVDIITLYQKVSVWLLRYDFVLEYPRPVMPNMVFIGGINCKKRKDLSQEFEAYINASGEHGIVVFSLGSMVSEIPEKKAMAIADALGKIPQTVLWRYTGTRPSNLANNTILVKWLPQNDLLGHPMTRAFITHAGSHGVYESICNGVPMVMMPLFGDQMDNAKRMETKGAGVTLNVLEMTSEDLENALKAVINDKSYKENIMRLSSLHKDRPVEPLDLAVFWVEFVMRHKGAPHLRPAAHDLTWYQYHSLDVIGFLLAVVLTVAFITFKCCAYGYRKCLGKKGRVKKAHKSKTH

UGT1A10 = molecular target: T5, UGT1A10 (Homo sapiens, UniProt Q9HAW8); experiment: Glucuronidation by recombinant human UGT1A10; conditions: UGT1A10, substrate 10 μM
T5 sequence (Q9HAW8 26-530): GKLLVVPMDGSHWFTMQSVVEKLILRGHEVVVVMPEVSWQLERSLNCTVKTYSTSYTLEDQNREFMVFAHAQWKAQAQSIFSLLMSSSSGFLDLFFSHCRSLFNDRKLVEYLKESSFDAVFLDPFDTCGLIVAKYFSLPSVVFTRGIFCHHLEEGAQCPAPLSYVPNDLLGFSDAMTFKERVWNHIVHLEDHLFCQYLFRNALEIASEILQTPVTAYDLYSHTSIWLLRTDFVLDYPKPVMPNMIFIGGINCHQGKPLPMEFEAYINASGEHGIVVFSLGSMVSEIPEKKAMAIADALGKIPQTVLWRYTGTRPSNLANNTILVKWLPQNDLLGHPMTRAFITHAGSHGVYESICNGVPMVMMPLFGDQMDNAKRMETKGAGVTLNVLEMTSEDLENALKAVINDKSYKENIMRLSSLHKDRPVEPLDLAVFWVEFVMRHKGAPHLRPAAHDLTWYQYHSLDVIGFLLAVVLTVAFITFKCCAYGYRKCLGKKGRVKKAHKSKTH

UGT1A9 [6] = molecular target: T1, UGT1A9; experiment: Glucuronidation by recombinant human UGT1A9
UGT2B7 = molecular target: T6, UGT2B7 (Homo sapiens, UniProt P16662); experiment: Glucuronidation by recombinant human UGT2B7; conditions: UGT2B7, substrate 10 μM
T6 sequence (P16662 24-529): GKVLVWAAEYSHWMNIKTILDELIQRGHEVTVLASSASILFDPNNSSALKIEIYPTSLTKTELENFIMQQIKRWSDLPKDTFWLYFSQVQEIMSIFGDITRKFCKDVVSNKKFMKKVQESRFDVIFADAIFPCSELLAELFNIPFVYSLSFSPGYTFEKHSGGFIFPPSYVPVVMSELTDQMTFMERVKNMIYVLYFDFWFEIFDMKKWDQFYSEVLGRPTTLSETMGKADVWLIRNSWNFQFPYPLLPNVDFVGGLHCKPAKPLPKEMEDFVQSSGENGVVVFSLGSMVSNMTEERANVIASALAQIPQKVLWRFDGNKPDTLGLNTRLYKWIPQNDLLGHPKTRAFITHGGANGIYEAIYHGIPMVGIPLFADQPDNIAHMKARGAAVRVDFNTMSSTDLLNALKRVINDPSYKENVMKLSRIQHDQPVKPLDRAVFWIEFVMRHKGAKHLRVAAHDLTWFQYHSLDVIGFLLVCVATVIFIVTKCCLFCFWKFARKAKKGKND

UGT1A1 [7] = molecular target: T2, UGT1A1; experiment: Glucuronidation by recombinant human UGT1A1
[8] = cited from earlier work
[9] = cited from earlier work; remark: listed apart in the source
UGT1A9 [10] = molecular target: T1, UGT1A9; conditions: cited from earlier work
[11] = bioavailability studies in humans; cited from earlier work

Degree of regiospecificity (major glucuronide in bracket) (UGT1A9 [1]; 2.5 μM): Dominant (7-O)
Degree of regiospecificity (major glucuronide in bracket) (UGT1A9 [1]; 10 μM): Dominant (7-O)
Degree of regiospecificity (major glucuronide in bracket) (UGT1A1 [3]; 2.5 μM): Dominant (7-O)
Degree of regiospecificity (major glucuronide in bracket) (UGT1A1 [3]; 10 μM): Dominant (7-O)
Degree of regiospecificity (major glucuronide in bracket) (UGT1A3 [4]; 2.5 μM): Dominant (7-O)
Degree of regiospecificity (major glucuronide in bracket) (UGT1A3 [4]; 10 μM): Dominant (7-O)
SMILES: O=c1cc(-c2ccc(O)cc2)oc2cc(O)cc(O)c12 [5,7,4'THF, 5,7,4’-trihydroxyflavone]
Glucuronidation and regiospecificity across the 8 UGT isoforms [2]: all isoforms showed dominant regiospecific glucuronidation of hydroxyl group at C-7 position only

Degree of regiospecificity (major glucuronide in bracket) (UGT1A3 [5]; UGT1A3, substrate 2.5 μM): Dominant (7-O)
Degree of regiospecificity (major glucuronide in bracket) (UGT1A3 [5]; UGT1A3, substrate 10 μM): Weak (7-O)
Hydroxyl positions glucuronidated (UGT1A6): no position was glucuronidated
Degree of regiospecificity (major glucuronide in bracket) (UGT1A9 [6]; UGT1A9, substrate 2.5 μM): Moderate (3-O)
Degree of regiospecificity (major glucuronide in bracket) (UGT1A9 [6]; UGT1A9, substrate 10 μM): Moderate (3-O)
Degree of regiospecificity (major glucuronide in bracket) (UGT1A9 [6]; UGT1A9, substrate 10 μM, listed as 7,4’DHFnol): moderate
Degree of regiospecificity (major glucuronide in bracket) (UGT1A1 [7]; UGT1A1, substrate 2.5 μM): No (3-O, 7-O)
Degree of regiospecificity (major glucuronide in bracket) (UGT1A1 [7]; UGT1A1, substrate 10 μM): No (3-O, 7-O)
SMILES: O=c1c(O)c(-c2ccc(O)cc2)oc2cc(O)ccc12 [7,4'DHFnol, 3,7,4’-trihydroxyflavone]
Hydroxyl positions glucuronidated (UGT1A3 [5]; UGT1A3, substrate 10 μM): glucuronidated hydroxyl groups at C-3 and C-7 positions only
Degree of regiospecificity (major glucuronide in bracket) (UGT1A3 [5]; UGT1A3, substrate 10 μM, listed as 7,4’DHFnol): weak regiospecific preference for 7-O over 3-O position
Hydroxyl positions glucuronidated (UGT1A10): glucuronidated all the three hydroxyl groups
Hydroxyl positions glucuronidated (UGT1A9 [6]; UGT1A9, substrate 10 μM): glucuronidated hydroxyl groups at C-3 and C-7 positions only
Hydroxyl positions glucuronidated (UGT2B7): glucuronidated all the three hydroxyl groups
Hydroxyl positions glucuronidated (UGT1A1 [7]; UGT1A1, substrate 10 μM): glucuronidated all the three hydroxyl groups
Degree of regiospecificity (major glucuronide in bracket) (UGT1A1 [7]; UGT1A1, substrate 10 μM, listed as 7,4’DHFnol): no regiospecific preference for any position

SMILES: O=c1c(-c2ccc(O)cc2)coc2cc(O)cc(O)c12 [genistein]
Cmax of 7-O-glucuronide relative to 4’-O-glucuronide ([8]; intravenous administration of genistein): four times higher
Cmax of 7-O-G relative to 4’-O-glucuronide ([8]; per-oral administration of genistein): 1.85 times

SMILES: O=C(O)[C@H]1O[C@@H](Oc2cc(O)c3c(=O)c(O)c(-c4ccc(O)c(O)c4)oc3c2)[C@H](O)[C@@H](O)[C@@H]1O [quercetin,7-O-G]
Antioxidative property [9]: stronger antioxidative property than quercetin,3-O-G

SMILES: O=c1c(O)c(-c2ccc(O)c(O)c2)oc2cc(O)cc(O)c12 [quercetin, 3,5,7,3’-4’-pentahydroxyflavone]
Catalytic efficiency order for regiospecific glucuronidation (UGT1A9 [10]): 3- > 7- > 3′- > 4′-O-glucuronide
Main glucuronide found [11]: 3-O-glucuronide of quercetin was also the main glucuronide
